Experimental data: ChEMBL document CHEMBL1201862, “PubChem BioAssay data set” (2004)
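Test compounds were applied to cells in 96-well plates for 48 hours at 5 doses. Here, GI50 denotes the concentration required for 50% inhibition of growth.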 Active and inactive are the calls of the source. Cut-off read from the data, not from the text of the source: active = GI50 up to about 1.1 µM and inactive = higher.

Legend:
Experiment in all cases: inhibition of tumour cell growth, NCI panel, 48 h
TK-10 = test system: TK-10
NCI-H460 = test system: NCI-H460
U-251 = test system: U-251
NCI-H522 = test system: NCI-H522
M14 = test system: M14
HOP-62 = test system: HOP-62
OVCAR-8 = test system: OVCAR-8
SK-MEL-5 = test system: SK-MEL-5
KM-20L2 = test system: KM-20L2
RXF 393 = test system: RXF 393
NCI/ADR-RES = test system: NCI/ADR-RES
MDA-MB-231 = test system: MDA-MB-231
Hs-578T = test system: Hs-578T
MCF7 = test system: MCF7
DU-145 = test system: DU-145
MDA-N = test system: MDA-N
MDA-MB-435 = test system: MDA-MB-435
BT-549 = test system: BT-549
PC-3 = test system: PC-3
T47D = test system: T47D

| Compound | GI50 (TK-10) | GI50 (NCI-H460) | GI50 (U-251) | GI50 (NCI-H522) | GI50 (M14) | GI50 (HOP-62) | GI50 (OVCAR-8) | GI50 (SK-MEL-5) | GI50 (KM-20L2) | GI50 (RXF 393) | GI50 (NCI/ADR-RES) | GI50 (MDA-MB-231) | GI50 (Hs-578T) | GI50 (MCF7) | GI50 (DU-145) | GI50 (MDA-N) | GI50 (MDA-MB-435) | GI50 (BT-549) | GI50 (PC-3) | GI50 (T47D) |
| --- | --- | --- | --- | --- | --- | --- | --- | --- | --- | --- | --- | --- | --- | --- | --- | --- | --- | --- | --- | --- |
| COC(=O)C(NC(=O)c1ccccc1)C(c1c(O)cc(O)cc1O)P(=O)(OC)OC (stereo not drawn) | > 100 µM (inactive) | 95.3 µM (inactive) | > 100 µM (inactive) | > 100 µM (inactive) | 48.8 µM (inactive) | > 100 µM (inactive) | > 100 µM (inactive) | > 100 µM (inactive) | > 100 µM (inactive) | – | – | – | – | – | – | – | – | – | – | – |
| O=C1C[C@@H]2[C@@H](C=CC23CCCC3)N1O | > 100 µM (inactive) | > 100 µM (inactive) | > 100 µM (inactive) | > 100 µM (inactive) | > 100 µM (inactive) | > 100 µM (inactive) | > 100 µM (inactive) | > 100 µM (inactive) | > 100 µM (inactive) | > 100 µM (inactive) | – | – | – | – | – | – | – | – | – | – |
| N#CC12C3C4CC5C6C4C1C6C(O)(C53)N2Cc1ccccc1 (stereo not drawn) | > 100 µM (inactive) | > 100 µM (inactive) | > 100 µM (inactive) | > 100 µM (inactive) | > 100 µM (inactive) | > 100 µM (inactive) | > 100 µM (inactive) | > 100 µM (inactive) | > 100 µM (inactive) | > 100 µM (inactive) | – | – | – | – | – | – | – | – | – | – |
| CC(C)OP(=O)(OC(C)C)/C(=N/Nc1ccc([N+](=O)[O-])cc1)Nc1ccc(N/C(=N\Nc2ccc([N+](=O)[O-])cc2)P(=O)(OC(C)C)OC(C)C)cc1 | 89.9 µM (inactive) | 2.31 µM (inactive) | 13.2 µM (inactive) | 6.22 µM (inactive) | 14.5 µM (inactive) | > 100 µM (inactive) | 13.6 µM (inactive) | 6.98 µM (inactive) | 14.9 µM (inactive) | – | – | – | – | – | – | – | – | – | – | – |
| COCOc1cc(OC)c(Br)cc1C/C(=N/O)C(=O)OC | 35.1 µM (inactive) | 71.9 µM (inactive) | > 100 µM (inactive) | 37.9 µM (inactive) | > 100 µM (inactive) | 67.3 µM (inactive) | > 100 µM (inactive) | 67.8 µM (inactive) | – | 28.5 µM (inactive) | 34 µM (inactive) | 42.2 µM (inactive) | 15.9 µM (inactive) | 95.5 µM (inactive) | > 100 µM (inactive) | 28 µM (inactive) | 29.6 µM (inactive) | 70.1 µM (inactive) | 42.9 µM (inactive) | 15.8 µM (inactive) |
| CCCCCCCCCCCCCCCCCCOP(=O)([O-])OCC[N+](C)(C)C [OCTADECYLPHOSPHONOCHOLINE] | – | 0.41 µM (active) | 0.695 µM (active) | 0.419 µM (active) | – | 0.301 µM (active) | 1.02 µM (active) | 1.42 µM (inactive) | 3.38 µM (inactive) | 2.45 µM (inactive) | 1.32 µM (inactive) | 0.0447 µM (active) | – | 0.382 µM (active) | – | – | – | 1.22 µM (inactive) | – | < 0.0209 µM (active) |
| O=S(O)CCCCCSSSCCCCCS(=O)O | 29 µM (inactive) | > 100 µM (inactive) | 54.5 µM (inactive) | 24 µM (inactive) | 43.7 µM (inactive) | > 100 µM (inactive) | – | – | > 100 µM (inactive) | 14.4 µM (inactive) | – | – | – | – | – | – | – | – | – | – |
| Oc1c(C(Nc2cccc3cccnc23)c2ccccc2)ccc2cccnc12 (stereo not drawn) | – | 3.33 µM (inactive) | – | 16.8 µM (inactive) | – | 9.64 µM (inactive) | 3.72 µM (inactive) | – | 3.77 µM (inactive) | – | – | – | – | – | – | – | – | – | – | – |
| O=C(O)c1ccccc1CN1CCCC(C(=O)O)C1 (stereo not drawn) | > 100 µM (inactive) | > 100 µM (inactive) | > 100 µM (inactive) | > 100 µM (inactive) | > 100 µM (inactive) | > 100 µM (inactive) | > 100 µM (inactive) | > 100 µM (inactive) | – | > 100 µM (inactive) | > 100 µM (inactive) | > 100 µM (inactive) | > 100 µM (inactive) | > 100 µM (inactive) | > 100 µM (inactive) | > 100 µM (inactive) | > 100 µM (inactive) | > 100 µM (inactive) | > 100 µM (inactive) | > 100 µM (inactive) |
| Nc1nc(=O)c2c([nH]1)NCC(CNc1ccc(C(=O)N[C@@H](CCC(=O)O)C(=O)O)cc1)N2C=O (stereo partly drawn) [LEUCOVORIN CALCIUM] | – | > 125 µM (inactive) | > 125 µM (inactive) | > 125 µM (inactive) | – | > 125 µM (inactive) | 121 µM (inactive) | > 125 µM (inactive) | > 125 µM (inactive) | > 125 µM (inactive) | > 125 µM (inactive) | – | – | > 125 µM (inactive) | – | – | – | – | – | – |
| C[C@@]12[Se]c3ccccc3[C@]1(C)[Se]c1ccccc12 | > 100 µM (inactive) | – | 54.6 µM (inactive) | 4.05 µM (inactive) | > 100 µM (inactive) | – | > 100 µM (inactive) | 4.21 µM (inactive) | > 100 µM (inactive) | 2.75 µM (inactive) | – | – | – | – | – | – | – | – | – | – |
| C=C1C(=O)O[C@@H]2[C@H](O)[C@@H](C)[C@@H]3C=CC(=O)[C@@]3(C)[C@H](OC(=O)C=C(C)C)[C@H]12 | – | 2.11 µM (inactive) | 1.49 µM (inactive) | 0.179 µM (active) | – | 4.35 µM (inactive) | 0.421 µM (active) | 1.69 µM (inactive) | 1.66 µM (inactive) | – | 0.536 µM (active) | – | – | 0.56 µM (active) | – | – | – | – | – | – |
| N#CCCN(CCC#N)c1ccc(C(=N/c2ccc(Cl)cc2)/N=N/c2ccc(Cl)cc2)cc1 | 18.5 µM (inactive) | 13.4 µM (inactive) | 19 µM (inactive) | 17 µM (inactive) | 21.5 µM (inactive) | 21.7 µM (inactive) | 17.6 µM (inactive) | 10.1 µM (inactive) | – | 14.3 µM (inactive) | 17.2 µM (inactive) | 19.5 µM (inactive) | 19.4 µM (inactive) | 10.1 µM (inactive) | 15.5 µM (inactive) | 19.5 µM (inactive) | 18.2 µM (inactive) | 14 µM (inactive) | 15.6 µM (inactive) | 7.6 µM (inactive) |
| COC(=O)C1=C(C(=O)OC)C23CC1C1C(C(=O)OC)=C(C(=O)OC)C12C1C=CC3C2C(=O)OC(=O)C21 (stereo not drawn) | > 100 µM (inactive) | 34.7 µM (inactive) | 48.2 µM (inactive) | 22.4 µM (inactive) | 41.3 µM (inactive) | > 100 µM (inactive) | 48.3 µM (inactive) | 41.8 µM (inactive) | > 100 µM (inactive) | 38.9 µM (inactive) | – | – | – | – | – | – | – | – | – | – |
| Nc1ccn(CCO)c(=O)n1 | > 100 µM (inactive) | > 100 µM (inactive) | > 100 µM (inactive) | > 100 µM (inactive) | > 100 µM (inactive) | > 100 µM (inactive) | > 100 µM (inactive) | > 100 µM (inactive) | > 100 µM (inactive) | > 100 µM (inactive) | – | – | – | – | – | – | – | – | – | – |
